SMILES strings stand for the structures.

In data set [1] the test system is acute orchiectomized (ORX) rabbit model. Put plainly: Oil-Red-O lipid staining score of Meibomian gland (eyelid) sections, Example 4. Type of data set: in vivo. The following applies: ORX rabbits, topical 2.5 mg/kg; scale 0-4 by % cells stained; sham 3.75, ORX vehicle 3.2. The procedure: At the end of the study, the animals were euthanatized. The left harderian and Meibomian glands were collected for lipid analysis and snap frozen using an ethanol:dry ice bath. Samples were stored at −80° C. until shipment for analysis. The right eyelids were embedded in OCT medium and shipped to Paragon Biosciences (Washington D.C.) for histology and Oil-red-O quantification of lipids. Images of three separate fields were taken from each eyelid at random and the amount of cells staining red in each field was scored using commercially available software. A scoring scheme was adopted with a scale of 0-4 to evaluate the staining intensities with 0=<1% cells stained, 1+ for 2-5% of cells stained, 2+=6-10% stain, 3+=11-20% staining, 4+ for >21% cells stained.
Oil-Red-O is a lipophilic dye that is commonly used to stain lipid containing cells in histological sections. The amount of Oil-Red-O stain in each section is proportional to the number of cells synthesizing or storing lipid. A relative scoring system was adopted to evaluate the differences in lipid content of the Meibomian gland sections from treated and untreated animals in the study. […] Upon treatment with Compound 2, the lipid staining was seen to increase to that of the intact animals (score=3.8).

Data set [2] is described as follows: Pharmacokinetic analysis of rabbit plasma after topical dosing, Example 4. Type of data set: in vivo. The following applies: topical or ocular, 2.5 mg/kg, topical 2.5 mg/kg, day 11 of dosing, read-out: Mean plasma concentrations over time (AUC). The procedure:
Immediately after the animals had recovered from anesthesia, they were dosed with the appropriate test articles as indicated above. Drug dosing was done once daily for 14 d. Blood samples were collected at 30, 60, 120, 240 and 1440 minutes after dose administration on day 11 for pharmacokinetic analyses. Plasma was separated for HPLC analysis of parent drug concentrations. Tears were collected using Schirmer tear strips (Alcon, Tex.) on day 0 before surgery and 24 hours after the last administration of drug (day 15). The tears were stored at −80° C. until shipment for analysis. […] Area under the curve for each individual peak was determined using the GC ChemStation software. To normalize for the tear content, the lipid composition was expressed as a ratio of the lipid that was most affected by castration (palmitate) to one which remained relatively constant (stearate).
Plasma samples collected after dosing on day 11 were analyzed using an LCMS/MS method. […]
Mobile phase consisted of 60% acetonitrile, 40% water and 0.1% formic acid. […] The plasma concentration—time data were analyzed by non-compartmental methods using WinNonlin (Version 3.1, Pharsight Corporation, Mountain View, Calif., USA). The area under the plasma concentration—time curve from time zero to infinity (AUC) was calculated by the trapezoidal rule with extrapolation to time infinity. […]

For the compound `C[C@](O)(COc1ccc(C#N)cc1)C(=O)Nc1ccc(C#N)c(C(F)(F)F)c1` [Compound 1, (S)—N-(4-Cyano-3-(trifluoromethyl)phenyl)-3-(4-cyanophenoxy)-2-hydroxy-2-methylpropanamide], in data set [1], the Oil-Red-O score is 3.4. In data set [2], the AUC was 25.2 µM·h.
The like results for `C[C@](O)(COc1ccc(C#N)c(F)c1)C(=O)Nc1ccc(C#N)c(C(F)(F)F)c1` [Compound 2, (S)—N-(4-cyano-3-(trifluoromethyl)phenyl)-3-(4-cyano-3-fluorophenoxy)-2-hydroxy-2-methylpropanamide] were, in that order, 3.8 and 12.2 µM·h.
